Source: patent US20150337013A1, “NOVEL ANTIBACTERIAL AGENTS FOR THE TREATMENT OF GRAM POSITIVE INFECTIONS” (priority 2008, published 2015)
Read-outs that look alike come from different tables or passages of the source.

How the values were obtained:
[1] = tested on: Enterococcus faecalis EFS.201 (ATCC 49452); assay type: cell-based
Summary of the method: (§1)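 Broth microdilution per CLSI M7-A7 in Mueller Hinton broth supplemented with 50 mg/L calcium, 5×10^5 bacteria per well, 2-fold compound dilutions, DMSO ≤1%. Plates incubated 18-20 hours at 37° C with aeration (200 rpm); MIC (μg/mL) is the lowest concentration giving no visible turbidity.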

[2] = tested on: Enterococcus faecalis EFS.312, Daptomycin resistant mutant (EFA); assay type: cell-based; conditions: MHBc with 50 mg/L calcium, 18-20 hours at 37° C.
Summary of the method: as §1

[3] = tested on: Enterococcus faecium EFM.14 (ATCC 6569); assay type: cell-based
Summary of the method: as §1

[4] = tested on: Enterococcus faecium EFM.384, Daptomycin resistant mutant (14-A); assay type: cell-based; conditions: MHBc with 50 mg/L calcium, 18-20 hours at 37° C.
Summary of the method: as §1

[5] = tested on: Staphylococcus aureus SAU.278, Daptomycin resistant mutant (D10); assay type: cell-based; conditions: MHBc with 50 mg/L calcium, 18-20 hours at 37° C.
Summary of the method: as §1

[6] = tested on: Staphylococcus aureus SAU.399 (ATCC 43300), Methicillin and Oxacillin Resistant; assay type: cell-based
Summary of the method: as §1

[7] = tested on: Staphylococcus aureus SAU.42 (ATCC 29213); assay type: cell-based
Summary of the method: as §1

[8] = tested on: C. difficile spores (ATCC #43596); experiment: Hamster C. difficile infection (CDAD) protection model; assay type: in vivo, Syrian golden hamsters; conditions: oral 0.5 mg/kg once daily for 5 days (MET 70 mg/kg three times daily for 5 days)
Protocol: Syrian golden hamsters were pretreated with 10 mg/kg clindamycin subcutaneously 24 hours before bacterial challenge. An inoculum of 20 C. difficile spores (ATCC #43596) in sterile saline was administered orally. Treatment was initiated 4 hours post-inoculation with dH2O, metronidazole (MET), vancomycin (VAN), or a compound of the present invention. Oral dosing regimens for VAN and compounds of Formula I were 0.5 mg/kg once daily for 5 days. MET was administered at 70 mg/kg three times daily for 5 days. CDAD was confirmed as the cause of death by observations at necropsy, including wet tail and/or macroscopic cecal alterations. The % protection provided by each therapy tested was calculated at 1 and 21 days post-dosing.

[9] = MHBc with 50 mg/L calcium, 18-20 hours at 37° C.

| SMILES | Efs201 MIC [1, 9] | Efs312 MIC [2] | Efm14 MIC [3, 9] | Efm384 MIC [4] | Sa278 MIC [5] | Sa399 MIC [6, 9] | Sa42 MIC [7, 9] | C. diff MIC90 (Clostridium difficile) | Efs201 MIC ([1]; ATCC 49452) | Efm14 MIC ([3]; ATCC 6569) | Sa399 MIC ([6]; ATCC 43300) | Sa42 MIC ([7]; ATCC 29213) | Mean % Protection 1 Day Post Dosing [8] | Mean % Protection 21 Days Post Dosing [8] |
| --- | --- | --- | --- | --- | --- | --- | --- | --- | --- | --- | --- | --- | --- | --- |
| CCCCCCCOc1ccc(-c2ccc(C(=O)N[C@@H](Cc3c[nH]c4ccccc34)C(=O)N[C@H](CC(N)=O)C(=O)N[C@@H](CC(=O)O)C(=O)N[C@@H]3C(=O)NCC(=O)N[C@@H](CCCN)C(=O)N[C@@H](CC(=O)O)C(=O)N[C@H](C)C(=O)N[C@@H](CC(=O)O)C(=O)NCC(=O)N[C@H](CO)C(=O)N[C@@H]([C@H](C)CC(=O)O)C(=O)N[C@@H](CC(=O)c4ccccc4N)C(=O)O[C@@H]3C)cc2)cc1 [Compound 63] | 0.5 µg/mL | 4 µg/mL | 1 µg/mL | 1 µg/mL | 0.25 µg/mL | 0.25 µg/mL | 0.25 µg/mL | 2 µg/mL |  |  |  |  |  |  |
| CCCCCCCCOc1ccc(-c2ccc(C(=O)N[C@@H](Cc3c[nH]c4ccccc34)C(=O)N[C@H](CC(N)=O)C(=O)N[C@@H](CC(=O)O)C(=O)N[C@@H]3C(=O)NCC(=O)N[C@@H](CCCN)C(=O)N[C@@H](CC(=O)O)C(=O)N[C@H](C)C(=O)N[C@@H](CC(=O)O)C(=O)NCC(=O)N[C@H](CO)C(=O)N[C@@H]([C@H](C)CC(=O)O)C(=O)N[C@@H](CC(=O)c4ccccc4N)C(=O)O[C@@H]3C)cc2)cc1 [Compound 64] | 0.5 µg/mL | 16 µg/mL | 1 µg/mL | 4 µg/mL | 0.5 µg/mL | 0.25 µg/mL | 0.125 µg/mL | 1 µg/mL |  |  |  |  |  |  |
| C[C@H](CC(=O)O)[C@@H]1NC(=O)[C@@H](CO)NC(=O)CNC(=O)[C@H](CC(=O)O)NC(=O)[C@@H](C)NC(=O)[C@H](CC(=O)O)NC(=O)[C@H](CCCN)NC(=O)CNC(=O)[C@@H](NC(=O)[C@H](CC(=O)O)NC(=O)[C@@H](CC(N)=O)NC(=O)[C@H](Cc2c[nH]c3ccccc23)NC(=O)Cc2ccc(-c3ccccc3)cc2)[C@@H](C)OC(=O)[C@H](CC(=O)c2ccccc2N)NC1=O [Compound 66] | >32 µg/mL | >32 µg/mL | >32 µg/mL | >32 µg/mL | >32 µg/mL | 8 µg/mL | 8 µg/mL | 8 µg/mL |  |  |  |  |  |  |
| C[C@H](CC(=O)O)[C@@H]1NC(=O)[C@@H](CO)NC(=O)CNC(=O)[C@H](CC(=O)O)NC(=O)[C@@H](C)NC(=O)[C@H](CC(=O)O)NC(=O)[C@H](CCCN)NC(=O)CNC(=O)[C@@H](NC(=O)[C@H](CC(=O)O)NC(=O)[C@@H](CC(N)=O)NC(=O)[C@H](Cc2c[nH]c3ccccc23)NC(=O)C2CCC(c3ccc(Cl)cc3)CC2)[C@@H](C)OC(=O)[C@H](CC(=O)c2ccccc2N)NC1=O (stereo partly shown) [Compound 67] |  | >32 µg/mL |  | >32 µg/mL | 4 µg/mL |  |  | 4 µg/mL | 4 µg/mL | 8 µg/mL | 4 µg/mL | 0.5 µg/mL |  |  |
| C[C@H](CC(=O)O)[C@@H]1NC(=O)[C@@H](CO)NC(=O)CNC(=O)[C@H](CC(=O)O)NC(=O)[C@@H](C)NC(=O)[C@H](CC(=O)O)NC(=O)[C@H](CCCN)NC(=O)CNC(=O)[C@@H](NC(=O)[C@H](CC(=O)O)NC(=O)[C@@H](CC(N)=O)NC(=O)[C@H](Cc2c[nH]c3ccccc23)NC(=O)c2ccc(-c3ccc(-c4ccccc4)cc3)cc2)[C@@H](C)OC(=O)[C@H](CC(=O)c2ccccc2N)NC1=O [Compound 69] | 0.5 µg/mL | 32 µg/mL | 0.5 µg/mL | 4 µg/mL | 0.125 µg/mL | 0.125 µg/mL | 0.125 µg/mL | 2 µg/mL |  |  |  |  |  |  |
| C[C@H](CC(=O)O)[C@@H]1NC(=O)[C@@H](CO)NC(=O)CNC(=O)[C@H](CC(=O)O)NC(=O)[C@@H](C)NC(=O)[C@H](CC(=O)O)NC(=O)[C@H](CCCN)NC(=O)CNC(=O)[C@@H](NC(=O)[C@H](CC(=O)O)NC(=O)[C@@H](CC(N)=O)NC(=O)[C@H](Cc2c[nH]c3ccccc23)NC(=O)c2cc(-c3ccc(Cl)cc3)cs2)[C@@H](C)OC(=O)[C@H](CC(=O)c2ccccc2N)NC1=O [Compound 70] |  | >32 µg/mL |  | >32 µg/mL | >32 µg/mL |  |  | 16 µg/mL | >32 µg/mL | >32 µg/mL | 8 µg/mL | 8 µg/mL |  |  |
| C[C@H](CC(=O)O)[C@@H]1NC(=O)[C@@H](CO)NC(=O)CNC(=O)[C@H](CC(=O)O)NC(=O)[C@@H](C)NC(=O)[C@H](CC(=O)O)NC(=O)[C@H](CCCN)NC(=O)CNC(=O)[C@@H](NC(=O)[C@H](CC(=O)O)NC(=O)[C@@H](CC(N)=O)NC(=O)[C@H](Cc2c[nH]c3ccccc23)NC(=O)/C=C/c2ccc(-c3ccccc3)cc2)[C@@H](C)OC(=O)[C@H](CC(=O)c2ccccc2N)NC1=O [Compound 71] | 8 µg/mL | >32 µg/mL | 16 µg/mL | >32 µg/mL | 32 µg/mL | 2 µg/mL | 2 µg/mL | 16 µg/mL |  |  |  |  |  |  |
| C[C@H](CC(=O)O)[C@@H]1NC(=O)[C@@H](CO)NC(=O)CNC(=O)[C@H](CC(=O)O)NC(=O)[C@@H](C)NC(=O)[C@H](CC(=O)O)NC(=O)[C@H](CCCN)NC(=O)CNC(=O)[C@@H](NC(=O)[C@H](CC(=O)O)NC(=O)[C@@H](CC(N)=O)NC(=O)[C@H](Cc2c[nH]c3ccccc23)NC(=O)C2(c3ccc(Cl)cc3)CCCCC2)[C@@H](C)OC(=O)[C@H](CC(=O)c2ccccc2N)NC1=O [Compound 72] |  | >32 µg/mL |  | >32 µg/mL | >32 µg/mL |  |  | 32 µg/mL | >32 µg/mL | >32 µg/mL | >32 µg/mL | >32 µg/mL |  |  |
| CCCCCCCCCC(=O)N[C@@H](Cc1c[nH]c2ccccc12)C(=O)N[C@H](CC(N)=O)C(=O)N[C@@H](CC(=O)O)C(=O)N[C@@H]1C(=O)NCC(=O)N[C@@H](CCCN)C(=O)N[C@@H](CC(=O)O)C(=O)N[C@H](C)C(=O)N[C@@H](CC(=O)O)C(=O)NCC(=O)N[C@H](CO)C(=O)N[C@@H]([C@H](C)CC(=O)O)C(=O)N[C@@H](CC(=O)c2ccccc2N)C(=O)O[C@@H]1C [Daptomycin, reference compound] |  | >32 µg/mL |  | >32 µg/mL | 8 µg/mL |  |  | 2 µg/mL | 2 µg/mL | 4 µg/mL | 0.5 µg/mL | 0.5 µg/mL |  |  |
| Cc1ncc([N+](=O)[O-])n1CCO [Metronidazole, 2-methyl-5-nitro-1H-imidazole-1-ethanol, reference compound] |  |  |  |  |  |  |  |  |  |  |  |  | 100% | 0% |
| CN[C@H](CC(C)C)C(=O)N[C@H]1C(=O)N[C@@H](CC(N)=O)C(=O)N[C@H]2C(=O)N[C@H]3C(=O)N[C@H](C(=O)N[C@H](C(=O)O)c4cc(O)cc(O)c4-c4cc3ccc4O)[C@H](O)c3ccc(c(Cl)c3)Oc3cc2cc(c3O[C@@H]2O[C@H](CO)[C@@H](O)[C@H](O)[C@H]2O[C@H]2C[C@](C)(N)[C@H](O)[C@H](C)O2)Oc2ccc(cc2Cl)[C@H]1O [Vancomycin, vancomycin, reference compound] |  |  |  |  |  |  |  |  |  |  |  |  | 90% | 62% |
